We go through one molecule from US20250313635A1, “ANTI-INTEGRIN ANTIBODIES AND USES THEREOF” (Merck Sharp & Dohme LLC, priority 2022, published 2025).

Structures are written as SMILES.

Series [1] deals with T1, mouse αvβ1 (Mus musculus, UniProt P09055+P43406).
T1 construct: expressed in transfected cells
The series can be described thus: Cell adhesion assay, CHOK1-α5KO-mαvβ1 cells on fibronectin. The following applies: FIG. 11. The format is cell-based. The procedure:
(§1) Cell adhesion assay. For plate preparation, Epic 384-well assay plates (Corning #5040) were washed with OptiMEM™ (Gibco #31985-070) and coated with murine fibronectin (Abcam #ab92784) at a concentration of 0.1 μg/well for CHO-α5KO-mαvβ1 cells; murine vitronectin (Abcam #ab92727) at 0.075 μg/well for CHO-mαvβ3 cells; or murine vitronectin at 0.125 μg/well for CHO-mαvβ5 (all at a volume of 25 μL/well in OptiMEM™), for one hour. Coating solution was then removed by flicking and plates were washed with OptiMEM™ and blocked with 25 μL/well of assay buffer (1% Ovalbumin (Sigma #A5503-10G) in OptiMEM™ containing 1×Pen-Strep (Gibco #15140-148)). A 5-minute baseline reading was taken on a Corning Epica Plate Reader (Model: Epic BT-157900) before removing the assay buffer and adding cells pre-incubated with inhibitors. The Epic™ plate reader detects cellular mass redistribution (adhesion) on the plate surface as a picometer wavelength shift over time. For inhibitor titration preparation: fivefold serial dilutions of small molecule inhibitor MK-0429 or antibody inhibitor Ab-31 were prepared in assay buffer at 4× the final concentration in a 384-well polypropylene plate in a volume of 15 μL per well, starting at a concentration of 800 nM. […]

The subject of series [2] is bleomycin-induced lung fibrosis mouse model. The series is described as follows: Mouse bleomycin lung fibrosis model. The format is in vivo. Conditions: MK-0429 200 mpk osmotic minipump, Nintedanib 60 mpk po qd. The procedure:
Mouse bleomycin lungfibrosis models. Adult male C57BL/6 mice (Taconic, Rensselaer, NY) were housed in a temperature and humidity-controlled facility with a 12-hour light: 12-hour dark cycle. Animals had ad libitum access to food (Purina Rodent Chow 5053, LabDiet, St. Louis, MO) and water. All procedures utilizing experimental animals were conducted in accordance with the Guide for the Care and Use of Laboratory Animals, and experimental procedures were reviewed and approved by the Institutional Animal Care and Use Committee at MRL, Kenilworth, NJ.
For osmotic minipump implantation, trifluoroacetate (TFA) salt of MK-0429 was formulated in 50% dimethylsulfoxide (DMSO)/50% H2O at a concentration of 416 mg/mL. MK-0429 or vehicle solution were filled in minipumps (Alzet, #1007D, flow rate 0.5 μL/hour). Minipumps were placed in mice subcutaneously in a pocket on the back between the shoulder blades. A small incision was made and a subcutaneous pocket formed by blunt dissection. A sterile minipump was inserted into the subcutaneous pocket. The incision was closed with staples or non-absorbable suture or absorbable (subcuticular) suture. The minipumps were used for continuous drug delivery for two weeks.
Mice at 12˜13 weeks of age were randomized to five groups: saline, bleomycin instillation with vehicle (osmotic minipump), bleomycin instillation with MK-0429 treatment, bleomycin instillation with vehicle oral treatment, and bleomycin instillation with Nintedanib treatment. All mice were anaesthetized with isoflurane. Bleomycin was dosed by intratracheal (i.t) instillation in a volume of 50 μL, at a dose of 1 unit/kg body weight. After instillation, mice were kept in a heads-up position for 2-5 minutes before putting into cages. MK-0429 (200 mg/kg) was administered by Osmotic pump from day 5 to day 14 and Nintedanib (60 mg/kg) was administered, p.o., q.d., for 14 days. Vehicle was dosed orally at 10 am daily from the day 5 to the end of the studies and dosing volume was 10 mL/kg. For plasma PK analysis, an aliquot of 50 μL plasma was spiked into a 96-well plate, and 200 μL of acetonitrile containing internal standard were added for protein precipitation. The mixture was vortexed, centrifuged at 4000 rpm for 20 minutes. Then 50 μL of supernatant fraction was mixed with 200 μL H2O and the final solution were injected for LC-MS/MS analysis. The methods for quantitative analysis were developed on UPLC (Waters) chromatographic system equipped with an API4000 QTrap™ mass spectrometer (Applied Biosystems, Concord, Ontario, Canada). Analyst 1.5 software packages (Applied Biosystems) were used to control the LC-MS/MS system and data acquisition and processing.
Histopathology analysis. Upon completion of the study, animals were euthanized and tissues were collected for histological assessment. Lung tissues were perfused with 10% formalin, fixed for 24 hours, and then paraffin embedded. Tissue sections were stained with hematoxylin & eosin (H&E) and Masson's trichrome, subsequently evaluated under light microscope. The severity of histopathologic changes and fibrosis in the lung were graded as described previously by pathologists (Ashcroft et al., J. Clin. Pathol. 41, 467-470 (1988); Hubner et al., Biotechniques 44(507-511), 514-607 (2008)). Following deparaffinization and rehydration, each lung tissue section was processed to identify αSMA deposition by immunohistochemistry. The primary antibodies used were αSMA antibody from Sigma. The Aperio ScanScope™ XT Slide Scanner (Aperio Technologies) system was used to capture whole slide digital images with a 20×objective. Digital images were managed using Aperio Spectrum™. The positive stains were identified and quantified using a macro created from a color deconvolution algorithm (Aperio Technologies). Statistical analysis was performed by using One-way ANOVA followed by Tukey's test.

The target in series [3] is T2, mouse αvβ3 (Mus musculus, UniProt O54890+P43406).
T2 construct: expressed in transfected cells
T2 sequence (P43406 31-1044): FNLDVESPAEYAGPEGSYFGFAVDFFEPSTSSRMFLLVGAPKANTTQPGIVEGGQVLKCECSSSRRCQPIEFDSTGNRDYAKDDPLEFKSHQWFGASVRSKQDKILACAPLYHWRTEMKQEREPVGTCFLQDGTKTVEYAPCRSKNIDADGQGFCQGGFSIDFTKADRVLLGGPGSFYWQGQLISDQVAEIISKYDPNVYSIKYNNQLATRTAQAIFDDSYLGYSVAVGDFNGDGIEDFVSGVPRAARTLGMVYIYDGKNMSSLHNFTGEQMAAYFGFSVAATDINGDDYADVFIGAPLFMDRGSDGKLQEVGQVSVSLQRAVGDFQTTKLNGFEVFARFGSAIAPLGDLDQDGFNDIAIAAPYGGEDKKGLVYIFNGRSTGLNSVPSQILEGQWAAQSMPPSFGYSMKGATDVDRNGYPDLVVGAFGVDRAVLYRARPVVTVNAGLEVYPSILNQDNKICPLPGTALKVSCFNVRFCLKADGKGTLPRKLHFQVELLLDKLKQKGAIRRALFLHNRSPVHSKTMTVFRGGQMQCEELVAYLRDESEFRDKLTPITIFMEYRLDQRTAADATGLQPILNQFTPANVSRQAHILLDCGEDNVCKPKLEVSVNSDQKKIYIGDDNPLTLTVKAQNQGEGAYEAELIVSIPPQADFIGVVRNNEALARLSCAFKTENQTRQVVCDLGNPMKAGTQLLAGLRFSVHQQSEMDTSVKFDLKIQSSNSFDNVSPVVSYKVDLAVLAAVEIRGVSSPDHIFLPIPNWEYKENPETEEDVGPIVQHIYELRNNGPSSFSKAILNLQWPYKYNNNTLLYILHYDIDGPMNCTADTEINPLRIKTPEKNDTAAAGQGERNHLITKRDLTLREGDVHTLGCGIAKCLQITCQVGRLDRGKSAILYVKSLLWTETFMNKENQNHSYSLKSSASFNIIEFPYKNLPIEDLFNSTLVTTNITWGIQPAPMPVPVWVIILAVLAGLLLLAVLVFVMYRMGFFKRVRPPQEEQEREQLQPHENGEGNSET
T2 sequence (O54890 26-787): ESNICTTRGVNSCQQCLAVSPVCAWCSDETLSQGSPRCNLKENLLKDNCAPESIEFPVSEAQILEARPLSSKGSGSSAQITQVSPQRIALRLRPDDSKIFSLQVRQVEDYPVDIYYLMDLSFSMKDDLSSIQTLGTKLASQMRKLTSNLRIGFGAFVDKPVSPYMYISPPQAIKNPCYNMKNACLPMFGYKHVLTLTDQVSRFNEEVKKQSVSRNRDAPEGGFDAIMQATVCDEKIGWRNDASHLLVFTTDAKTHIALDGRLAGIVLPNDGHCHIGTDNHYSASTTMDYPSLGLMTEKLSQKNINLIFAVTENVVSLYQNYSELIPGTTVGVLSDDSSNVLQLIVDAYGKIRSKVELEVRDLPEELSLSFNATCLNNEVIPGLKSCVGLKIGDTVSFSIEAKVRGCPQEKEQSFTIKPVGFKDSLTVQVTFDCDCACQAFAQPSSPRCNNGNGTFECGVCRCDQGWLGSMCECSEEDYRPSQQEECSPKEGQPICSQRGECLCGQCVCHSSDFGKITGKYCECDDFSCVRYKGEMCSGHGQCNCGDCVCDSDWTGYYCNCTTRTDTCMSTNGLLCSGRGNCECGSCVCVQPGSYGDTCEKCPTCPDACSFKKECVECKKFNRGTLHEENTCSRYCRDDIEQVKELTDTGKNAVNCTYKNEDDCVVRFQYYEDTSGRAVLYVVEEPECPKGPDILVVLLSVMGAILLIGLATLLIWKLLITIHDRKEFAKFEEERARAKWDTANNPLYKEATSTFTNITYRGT
The series can be described thus: Cell adhesion assay, CHOK1-mαvβ3 cells on vitronectin. The series is classed as cell-based. Conditions: FIG. 11. The procedure: as §1

The conditions of series [4]: osteoporosis patients, 52 weeks; cited from earlier work.
The mark [5] stands for this setting: 14 days treatment, vs BLM-vehicle.

T1 sequence (P43406 31-1044): as the sequence (P43406 31-1044) above
T1 sequence (P09055 21-798): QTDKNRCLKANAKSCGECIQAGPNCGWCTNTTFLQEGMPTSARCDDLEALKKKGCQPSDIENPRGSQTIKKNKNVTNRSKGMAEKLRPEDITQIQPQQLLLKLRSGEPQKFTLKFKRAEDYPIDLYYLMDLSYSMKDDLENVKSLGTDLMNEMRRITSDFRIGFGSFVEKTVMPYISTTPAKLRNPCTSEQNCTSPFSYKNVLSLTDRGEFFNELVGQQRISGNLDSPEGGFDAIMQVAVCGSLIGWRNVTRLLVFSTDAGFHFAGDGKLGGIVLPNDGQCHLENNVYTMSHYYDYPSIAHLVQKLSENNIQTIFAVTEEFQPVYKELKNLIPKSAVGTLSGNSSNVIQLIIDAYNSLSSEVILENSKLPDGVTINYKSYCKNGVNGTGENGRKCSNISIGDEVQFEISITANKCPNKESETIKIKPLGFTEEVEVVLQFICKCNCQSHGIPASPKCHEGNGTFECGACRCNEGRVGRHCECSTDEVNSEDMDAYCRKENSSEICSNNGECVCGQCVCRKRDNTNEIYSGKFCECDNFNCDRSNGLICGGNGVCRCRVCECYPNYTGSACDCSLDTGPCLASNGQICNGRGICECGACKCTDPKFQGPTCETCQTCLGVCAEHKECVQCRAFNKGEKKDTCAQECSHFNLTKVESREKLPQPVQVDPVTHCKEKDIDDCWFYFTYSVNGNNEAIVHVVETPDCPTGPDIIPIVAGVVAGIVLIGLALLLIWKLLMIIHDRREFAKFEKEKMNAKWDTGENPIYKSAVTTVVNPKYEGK

On to `COc1ccc([C@H](CC(=O)O)N2CCN(CCCc3ccc4c(n3)NCCC4)C2=O)cn1` [MK-0429, (3S)-3-(6-methoxypyridin-3-yl)-3-[2-oxo-3-[3-(5,6,7,8-tetrahydro-1,8-naphthyridin-2-yl)propyl]imidazolidin-1-yl]propanoic acid], for which, in series [1], the “adhesion of mouse αvβ1-expressing CHOK1-α5KO cells” value was “potently reduced”. Further, the “body weight difference vs bleomycin group” value in series [2] is reported as “no significant body weight difference”. In series [2] (setting [5]), the “BALF TIMP-1 content” value is on record as “did not reach statistical significance”, the “bleomycin-induced αSMA expression (IHC)” value was “significantly decreased”, the “inflammation in the lung” value is “nonstatistical significant decrease” and the “modified Ashcroft score” value is reported as “significantly decreased”. The “cell adhesion of mouse αvβ3 on a vitronectin matrix” value in series [3] was “decreased”. In addition, the safety profile entry in series [4] was “relatively well-tolerated safety profile”.
